From article PMC7729195, “Pharmacodynamic Functions of Synthetic Derivatives for Treatment of Methicillin-Resistant Staphylococcus aureus (MRSA) and Mycobacterium tuberculosis” (Frontiers in Microbiology, 2020)
In brackets after ≈: the same amount, converted by molar mass. Several values for one entry are separate records, joined by “and”; a condition that tells them apart may be missing. Identical values can stand only once.

Experiments:
[1] = test system: MRSA; assay: Minimum bactericidal concentration (MBC) for MRSA; type: cell-based, Staphylococcus aureus; design: unit not given here; conditions: sub-culture on agar, 18 h
[2] = test system: E. coli EC958; assay: Bacterial inhibition assay (resazurin), MIC against E. coli; type: cell-based, Escherichia coli; conditions: synthetic compounds, 18 h incubation; for MIC: Escherichia coli, EC958
[3] = test system: TB. H37Rv; assay: Minimum bactericidal concentration (MBC) for TB; type: cell-based, Mycobacterium tuberculosis; design: unit not given here; conditions: sub-culture on agar, 7 days
[4] = test system: M. tuberculosis H37Rv; assay: Checkerboard assay with rifampicin against M. tuberculosis; type: cell-based, Mycobacterium tuberculosis; conditions: for Drug–drug interactions / FIC: M. tuberculosis, compound with rifampicin; for MIC50: Mycobacterium tuberculosis, H37RV, read-out: Compound alone MIC50 for M. tuberculosis; for Effect against M. tuberculosis in combination with rifampicin: rifampicin plus compound
[5] = test system: P. aeruginosa PAO1; assay: Bacterial inhibition assay (resazurin), MIC against P. aeruginosa; type: cell-based, Pseudomonas aeruginosa; conditions: synthetic compounds, 18 h incubation; for MIC: Pseudomonas aeruginosa, PAO1
[6] = test system: M. tuberculosis H37Rv; assay: Bacterial inhibition assay (resazurin), MIC against M. tuberculosis; type: cell-based, Mycobacterium tuberculosis; design: MIC for TB. H37Rv: unit not given here; conditions: for MIC: Mycobacterium tuberculosis, H37RV, 168 h; for MIC / MIC M. tuberculosis: synthetic compounds, 7 days incubation; for MIC for TB. H37Rv: Table 6 summary
[7] = test system: M. tuberculosis; assay: Time-kill study against M. tuberculosis; type: cell-based, Mycobacterium tuberculosis; conditions: for Killing effect with rifampicin: rifampicin plus compound, day 7 of treatment; for Effect on bacterial viability: compound treatment, day 6
Description: Time-kill experiments were performed by culturing MRSA and M. tuberculosis in liquid medium in the presence of six synthesized sample concentrations in doubling dilutions ranging from 8 to 0.001 × MIC and 2 × MIC for both bacteria, respectively. Growth curves were initially generated to confirm that bacteria would reach a stable early- to mid-log phase after 2 and 48 h of pre-incubation in antimicrobial-free both medium, respectively. Samples were taken in different incubation times after drug exposure at 0, 2, 4, 6, 8, and 24 h for MRSA and 24, 48 h, and 4 and 6 days for M. tuberculosis and then plated onto agar plates for CFU determination. The experiments were carried out in duplicate and repeated three times.

[8] = test system: MRSA; assay: Checkerboard assay with vancomycin against MRSA; type: cell-based, Staphylococcus aureus; conditions: for Drug–drug interactions / FIC / MIC50: MRSA; for Drug–drug interactions / FIC: compound with vancomycin; for MIC50: Staphylococcus aureus, compound alone
[9] = test system: THP1; type: cell-based; conditions: human, 7 days
Description: (§1) Human alveolar epithelial cells (A549), ([Giard et al., 1973]), Madin-Darby canine kidney epithelial cells (MDCK), ([Gaush et al., 1966]), human leukemia cells (THP-1) ([Tsuchiya et al., 1980]), human hepatocellular carcinoma cells (Hep-G2), ([Aden et al., 1979]), and human embryonic kidney cells 293 (HEK293) ([Graham et al., 1977]) were grown and differentiated in complete RPMI (Roswell Park Memorial Institute Medium) and DMEM (Dulbecco’s Modified Eagle’s medium) tissue culture media (RPMIc and DMEMc). To determine toxicity of the AIMS extract library, 2 × 10^5 of each cell type were added to a 96-well plate and left for 48 h at 37°C to adhere. Extract samples at a final concentration of 0.5 mg mL^–1 were added to the wells, then incubated for 7 days in a humidified 5% CO2 incubator at 37°C. Then resazurin (10 μL of 0.05% w/v) was added, and after 4 h, fluorescence measured as described previously. Cell viability was calculated as percentage fluorescence relative to untreated cells.

[10] = test system: HepG2; type: cell-based; conditions: human, 7 days
Description: as §1

[11] = test system: A549; type: cell-based; conditions: human, 7 days
Description: as §1

[12] = test system: HEK 293; type: cell-based; conditions: human, 7 days
Description: as §1

[13] = test system: resistant strains; assay: MIC against resistant strains; type: cell-based; conditions: read-out: MIC against resistant strains
[14] = test system: MRSA; assay: Bacterial inhibition assay (resazurin), MIC against MRSA; type: cell-based, Staphylococcus aureus; design: MIC for MRSA: unit not given here; conditions: for MIC: Staphylococcus aureus, MRSA, synthetic compounds, 18 h incubation; for MIC for MRSA: Table 6 summary
[15] = test system: A549, THP-1, HepG2 and HEK 293 cell lines; type: cell-based, human
Description: as §1

[16] = test system: MRSA; assay: Time-kill study against MRSA; type: cell-based, Staphylococcus aureus; conditions: for Effect of sub-inhibitory combination with vancomycin on MRSA growth: sub-inhibitory combinations with vancomycin; for Concentration at which killing was observed: time-kill, MRSA; for Bactericidal character: conclusion of time-kill studies
[17] = compound 12.5 μM plus vancomycin 50 μg mL^–1

Row | Compound | MBC for MRSA [1] | MIC [2] [µM] | MBC for TB. H37Rv [3] | Drug–drug interactions [4] | FIC [4] | MIC50 [4] [µM] | MIC [5] [µM] | MIC [6] [µM] | MIC for TB. H37Rv [6] | Drug–drug interactions [8] | FIC [8] | MIC50 [8] [µM] | Minimum toxicity concentration of drug (MTC) THP1 [9] [µM] | Minimum toxicity concentration of drug (MTC) HepG2 [10] [µM] | Minimum toxicity concentration of drug (MTC) A549 [11] [µM] | Minimum toxicity concentration of drug (MTC) HEK 293 [12] [µM] | MIC [14] [µM] | MIC for MRSA [14] | Toxicity against THP1 and/or HEK 293 cells [15] | Effect of sub-inhibitory combination with vancomycin on MRSA growth [16] | also measured
1 | CCCCCCCCN(CCCCCCCC)CCc1cn(-c2ccc3c4c(cccc24)C(=O)N(CC)C3=O)nn1 [Compound 18, 6-(4-(2-(Dioctylamino) Ethyl)-1H-1,2,3-Triazol-1-yl)-2-Ethyl-1H-Benzo[de]isoquinoline-1,3(2H)-Dione] | 12.5 | 1.5 (≈ 0.84 µg/mL) | 50 | Indifference (0.25–4 indifferent or additive activity) | 1 | 6.25 | 12.5 ± 0.8 (≈ 7 µg/mL) | 12.5 ± 1 (≈ 7 µg/mL) | 6.25 | Indifference (0.25–4 indifferent or additive activity) | 1.2 | 12.5 | >100 ± 9.0 | >100 ± 5.0 | >100 ± 6.0 | 3.1 ± 8.2 | 12.5 ± 2 (≈ 7 µg/mL) | 12.5 | some toxicity | substantially inhibited growth of MRSA | MIC E. coli [2]: 1.5 ± 4.0 µM (≈ 0.84 µg/mL); Effect against M. tuberculosis in combination with rifampicin [4]: synergistic or bactericidal effects; Killing effect with rifampicin [7]: comparable killing effects; MIC [13]: 2.2 µM (≈ 1.23 µg/mL); Concentration at which killing was observed [16]: 12.5 μg mL^–1
2 | CCCCCCCCN(CCCCCCCC)c1ccc(C)cc1 [Compound 1b, N,N-Dioctyl-4-Methylaniline] | 200 | 100 ± 1 (≈ 33.2 µg/mL) | 100 | Indifference (0.25–4 indifferent or additive activity) | 1.1 | 6.25 | 100 ± 6.5 (≈ 33.2 µg/mL) | 25 ± 1 (≈ 8.29 µg/mL) | 6.25 | Indifference (0.25–4 indifferent or additive activity) | 1.2 | 100 | >100 ± 2.0 | >100 ± 0.9 | >100 ± 3.8 | >100 ± 6.0 | 100 ± 5.4 (≈ 33.2 µg/mL) | 100 | – | substantially inhibited growth of MRSA | Effect on bacterial viability [7]: significant reduction in bacterial viability; Toxicity against all four cell lines [15]: low toxicity; Time-kill effect against log-phase MRSA ([16]; 100 μM): rapidly reduced growth by 1 h post-treatment; Effect on regrowth of MRSA [16, 17]: substantially reduced regrowth
3 | CN[C@H](CC(C)C)C(=O)N[C@H]1C(=O)N[C@@H](CC(N)=O)C(=O)N[C@H]2C(=O)N[C@H]3C(=O)N[C@H](C(=O)N[C@H](C(=O)O)c4cc(O)cc(O)c4-c4cc3ccc4O)[C@H](O)c3ccc(c(Cl)c3)Oc3cc2cc(c3O[C@@H]2O[C@H](CO)[C@@H](O)[C@H](O)[C@H]2O[C@H]2C[C@](C)(N)[C@H](O)[C@H](C)O2)Oc2ccc(cc2Cl)[C@H]1O [vancomycin, Vancomycin, reference compound] | – | – | – | – | – | – | – | – | – | – | – | – | – | – | – | – | – | – | – | – | Viable count after regrowth ([16]; 50 μg mL^–1, after 24h): 106 CFU mL^–1; Time-kill effect against MRSA ([16]; 100 μg mL^–1 at 24 h): bactericidal effect; Time-kill effect against MRSA compared to untreated bacteria ([16]; concentrations up to 50 μg mL^–1): did not have an antibacterial effect
4 | CCCCCCCCN(CCCCCCCC)CCCCCCCC [Compound 13, N,N,N-Trioctylammonium Chloride] | 100 | 25 ± 2 | 0.39 | Indifference (0.25–4 indifferent or additive activity) | 1.1 | 0.02 | 25 ± 4 | 0.02 | 0.02 | Indifference (0.25–4 indifferent or additive activity) | – | 12.5 | 3.1 ± 0.7 | >100 ± 5.2 | 50 ± 1.4 | 6.5 ± 3.0 | 12.5 ± 2.7 | 12.5 | some toxicity | substantially inhibited growth of MRSA | MIC M. tuberculosis [6]: 0.02 ± 1.1 µM; Killing effect with rifampicin [7]: comparable killing effects; MIC [13]: ≥ 0.24 µM; Concentration at which killing was observed [16]: > 100 μg mL^–1
5 | CCCCCCCCCCN(CCCCCC)CCCCCC [Compound 3, N,N-Dihexyldecan-1-Amine] | 12.5 | 6.2 (≈ 2.02 µg/mL) | 6.25 | – | 0.4 | 1.5 | 3.1 (≈ 1.01 µg/mL) | 3.1 (≈ 1.01 µg/mL) | 1.5 | Indifference (0.25–4 indifferent or additive activity) | 1.2 | 12.5 | 50 ± 5.0 | >100 ± 1.0 | >100 ± 2.0 | 25 ± 2.0 | 12.5 ± 1 (≈ 4.07 µg/mL) | 12.5 | some toxicity | substantially inhibited growth of MRSA | MIC E. coli [2]: 6.2 ± 1.0 µM (≈ 2.02 µg/mL); Effect against M. tuberculosis in combination with rifampicin [4]: synergistic or bactericidal effects; MIC P. aeruginosa [5]: 3.1 ± 5.0 µM (≈ 1.01 µg/mL); MIC M. tuberculosis [6]: 3.1 ± 0.7 µM (≈ 1.01 µg/mL); Effect on bacterial viability [7]: significant reduction in bacterial viability; Killing effect with rifampicin [7]: comparable killing effects; Bactericidal character [16]: strongly bactericidal and concentration dependent; Concentration at which killing was observed [16]: 12.5 μg mL^–1
6 | CCCCCCCCN(CCCCCCCC)Cc1ccccc1 [Compound 2a, N-Benzyl-N-Octyloctan-1Amine] | 100 | 50 ± 1 (≈ 16.6 µg/mL) | 25 | Indifference (0.25–4 indifferent or additive activity) | 1.1 | 1.5 | 50 ± 1 (≈ 16.6 µg/mL) | 1.5 ± 1 (≈ 0.497 µg/mL) | 1.5 | – | 0.328 and 0.33 | 12.5 | 6.5 ± 0.8 | >100 ± 0.8 | >100 ± 1.0 | 50 ± 4.0 | 12.5 ± 0.7 (≈ 4.14 µg/mL) | 12.5 | some toxicity | substantially inhibited growth of MRSA | Effect on bacterial viability [7]: significant reduction in bacterial viability; Activity against MRSA in combination with vancomycin ([8]; vancomycin plus compound): bactericidal activity; Time to bactericidal effect [16, 17]: 1 h; Net-growth of MRSA ([16]; compound 1.5 to 0.1 μM plus vancomycin 50 μg mL^–1, at 24 h): up to 102 CFU mL^–1; Bactericidal character [16]: strongly bactericidal and concentration dependent
